Molecules are shown by their SMILES.

Common to all, as to format: cell-based
What all share (conditions): free compounds (natural products and synthetic analogs), cell viability 96 hours after treatment

The test system of experiment [1] is N87 (gastric cancer) cells. Nature of the experiment: In vitro cell assay (MTS cell viability), N87. In short, it runs like this:
(§1)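 Cells seeded 24 h, then treated with antibody-drug conjugates or free drug, 3-fold serial dilutions at 10 concentrations in duplicate. Viability by MTS at 96 h as percent of untreated control; IC50 from four-parameter logistic fit.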

In experiment [2] the test system is MDA-MB-361-DYT2 (breast cancer) cells. In words: In vitro cell assay (MTS cell viability), MDA-MB-361-DYT2. In outline: as §1
The subject of experiment [3] is BT474 (breast cancer) cells. In words: In vitro cell assay (MTS cell viability), BT474. On the procedure:
Target expressing (BT474 (breast cancer), N87 (gastric cancer), HCC1954 (breast cancer), MDA-MB-361-DYT2 (breast cancer)) or non-expressing (MDA-MB-468) cells were seeded in 96-well cell culture plates for 24 hours before treatment. Cells were treated with 3-fold serially diluted antibody-drug conjugates or free compounds (i.e., no antibody conjugated to the drug) in duplicate at 10 concentrations. Cell viability was determined by CellTiter 96® AQueous One Solution Cell Proliferation MTS Assay (Promega, Madison Wis.) 96 hours after treatment. Relative cell viability was determined as percentage of untreated control. IC50 values were calculated using a four parameter logistic model #203 with XLfit v4.2 (IDBS, Guildford, Surry, UK). The potency ranged upward from 0.0002 nm. Similar procedures and techniques were employed.

By IC50 is commonly meant the concentration at which inhibition is half-maximal. A higher IC50 goes with lower potency. On to `CC(=O)O[C@@H](C)/C=C\C(=O)N[C@@H]1C[C@H](C)[C@H](C/C=C(C)/C=C/[C@H]2O[C@H](CC(=O)NCc3cccc(N)c3)C[C@@]3(CO3)[C@@H]2O)O[C@@H]1C` [#B89, (2S,3Z)-5-{[(2R,3R,5S,6S)-6-{(2E,4E)-5-[(3R,4R,5R,7S)-7-{2-[(3-aminobenzyl)amino]-2-oxoethyl}-4-hydroxy-1,6-dioxaspiro[2.5]oct-5-yl]-3-methylpenta-2,4-dien-1-yl}-2,5-dimethyltetrahydro-2H-pyran-3-yl]amino}-5-oxopent-3-en-2-yl acetate], for which the IC50 came to 1.91 nM in experiment [1] (96 h); 7.99 nM in experiment [2] (96 h); 3.56 nM in experiment [3] (Homo sapiens, BT-474).

As to `CSCCN(C)C(=O)O[C@@H](C)/C=C\C(=O)N[C@@H]1C[C@H](C)[C@H](C/C=C(C)/C=C/[C@H]2O[C@H](CC(N)=O)C[C@@]3(CO3)[C@@H]2O)O[C@@H]1C` [#B130, (2S,3Z)-5-{[(2R,3R,5S,6S)-6-{(2E,4E)-5-[(3R,4R,5R,7S)-7-(2-amino-2-oxoethyl)-4-hydroxy-1,6-dioxaspiro[2.5]oct-5-yl]-3-methylpenta-2,4-dien-1-yl}-2,5-dimethyltetrahydro-2H-pyran-3-yl]amino}-5-oxopent-3-en-2-yl methyl[2-(methylsulfanyl)ethyl]carbamate], the IC50 in experiment [1] (96 h) came out at 2.98 nM; in experiment [2] (96 h) it was 4.5 nM; in experiment [3] (Homo sapiens, BT-474), 1.5 nM.

Take `CC(=O)O[C@@H](C)/C=C\C(=O)N[C@@H]1C[C@H](C)[C@H](C/C=C(C)/C=C/[C@H]2O[C@H](CC(=O)NCc3ccc(N)c(F)c3)C[C@@]3(CO3)[C@@H]2O)O[C@@H]1C` [#B85, (2S,3Z)-5-{[(2R,3R,5S,6S)-6-{(2E,4E)-5-[(3R,4R,5R,7S)-7-{2-[(4-amino-3-fluorobenzyl)amino]-2-oxoethyl}-4-hydroxy-1,6-dioxaspiro[2.5]oct-5-yl]-3-methylpenta-2,4-dien-1-yl}-2,5-dimethyltetrahydro-2H-pyran-3-yl]amino}-5-oxopent-3-en-2-yl acetate]: the half-maximal inhibitory concentration (IC50) in experiment [1] (96 h) worked out at 1.56 nM; in experiment [2] (96 h), 5.5 nM; in experiment [3] (Homo sapiens, BT-474), 1.47 nM.

`CC(=O)O[C@@H](C)/C=C\C(=O)N[C@@H]1C[C@H](C)[C@H](C/C=C(C)/C=C/[C@H]2O[C@H](CC(=O)NCc3ccc(N)cc3F)C[C@@]3(CO3)[C@@H]2O)O[C@@H]1C` [#B84, (2S,3Z)-5-{[(2R,3R,5S,6S)-6-{(2E,4E)-5-[(3R,4R,5R,7S)-7-{2-[(4-amino-2-fluorobenzyl)amino]-2-oxoethyl}-4-hydroxy-1,6-dioxaspiro[2.5]oct-5-yl]-3-methylpenta-2,4-dien-1-yl}-2,5-dimethyltetrahydro-2H-pyran-3-yl]amino}-5-oxopent-3-en-2-yl acetate]: the concentration for half-maximal inhibition (IC50) was 2.54 nM in experiment [1] (96 h); 8.27 nM in experiment [2] (96 h); 2.53 nM in experiment [3] (Homo sapiens, BT-474).

Turning to `CC(=O)O[C@@H](C)/C=C\C(=O)N[C@@H]1C[C@H](C)[C@H](C/C=C(C)/C=C/[C@@H]2C[C@]3(CO3)C[C@@H](CC(=O)N[C@H]3CC[C@H](N(C)C)CC3)O2)O[C@@H]1C` (relative stereo) [#B87, (2S,3Z)-5-{[(2R,3R,5S,6S)-6-{(2E,4E)-5-[(3S,5S,7S)-7-(2-{[trans-4-(dimethylamino)cyclohexyl]amino}-2-oxoethyl)-1,6-dioxaspiro[2.5]oct-5-yl]-3-methylpenta-2,4-dien-1-yl}-2,5-dimethyltetrahydro-2H-pyran-3-yl]amino}-5-oxopent-3-en-2-yl acetate], the IC50 in experiment [1] was determined as 0.744 nM; in experiment [2], 3.47 nM; in experiment [3], 1.21 nM.

As to `CC(=O)O[C@@H](C)/C=C\C(=O)N[C@@H]1C[C@H](C)[C@H](C/C=C(C)/C=C/[C@H]2O[C@H](CC(=O)NCCO)C[C@@]3(CO3)[C@@H]2O)O[C@@H]1C` [#B8, (2S,3Z)-5-{[(2R,3R,5S,6S)-6-{(2E,4E)-5-[(3R,4R,5R,7S)-4-hydroxy-7-{2-[(2-hydroxyethyl)amino]-2-oxoethyl}-1,6-dioxaspiro[2.5]oct-5-yl]-3-methylpenta-2,4-dien-1-yl}-2,5-dimethyltetrahydro-2H-pyran-3-yl]amino}-5-oxopent-3-en-2-yl acetate], the concentration for half-maximal inhibition (IC50) in experiment [1] (96 h) stood at 10.7 nM; in experiment [2] (96 h), 25.5 nM; in experiment [3] (Homo sapiens, BT-474), 14.1 nM.

With `CC(=O)O[C@@H](C)/C=C\C(=O)N[C@@H]1C[C@H](C)[C@H](C/C=C(C)/C=C/[C@@H]2C[C@]3(CO3)C[C@@H](CC(=O)N(C)Cc3ccc(S(=O)(=O)N(C)C)cc3)O2)O[C@@H]1C` [#B96, (2S,3Z)-5-{[(2R,3R,5S,6S)-6-{(2E,4E)-5-[(3S,5S,7S)-7-(2-{[4-(dimethylsulfamoyl)benzyl](methyl)amino}-2-oxoethyl)-1,6-dioxaspiro[2.5]oct-5-yl]-3-methylpenta-2,4-dien-1-yl}-2,5-dimethyltetrahydro-2H-pyran-3-yl]amino}-5-oxopent-3-en-2-yl acetate], the IC50 in experiment [1] (96 h) amounted to 12.3 nM; in experiment [2] (96 h), 31.5 nM; in experiment [3] (Homo sapiens, BT-474), 22.9 nM.

Regarding `CC(=O)O[C@@H](C)/C=C\C(=O)N[C@@H]1C[C@H](C)[C@H](C/C=C(C)/C=C/[C@H]2O[C@H](CC(=O)N[C@H]3CC[C@H](O)CC3)C[C@@]3(CO3)[C@@H]2O)O[C@@H]1C` [#B141, (2S,3Z)-5-{[(2R,3R,5S,6S)-6-{(2E,4E)-5-[(3R,4R,5R,7S)-4-hydroxy-7-{2-[(trans-4-hydroxycyclohexyl)amino]-2-oxoethyl}-1,6-dioxaspiro[2.5]oct-5-yl]-3-methylpenta-2,4-dien-1-yl}-2,5-dimethyltetrahydro-2H-pyran-3-yl]amino}-5-oxopent-3-en-2-yl acetate], the concentration for half-maximal inhibition (IC50) in experiment [1] (96 h) was found to be 11 nM; in experiment [2] (96 h), 12.8 nM; in experiment [3] (Homo sapiens, BT-474) it was 10.9 nM.

Consider `CC(=O)O[C@@H](C)/C=C\C(=O)N[C@@H]1C[C@H](C)[C@H](C/C=C(C)/C=C/[C@H]2O[C@H](CC(=O)N3CCCCC3)C[C@@]3(CO3)[C@@H]2O)O[C@@H]1C` [#B72, (2S,3Z)-5-({(2R,3R,5S,6S)-6-[(2E,4E)-5-{(3R,4R,5R,7S)-4-hydroxy-7-[2-oxo-2-(piperidin-1-yl)ethyl]-1,6-dioxaspiro[2.5]oct-5-yl}-3-methylpenta-2,4-dien-1-yl]-2,5-dimethyltetrahydro-2H-pyran-3-yl}amino)-5-oxopent-3-en-2-yl acetate], for which the IC50 came out at 0.481 nM in experiment [1] (96 h); 1.16 nM in experiment [2] (96 h); 0.607 nM in experiment [3] (Homo sapiens, BT-474).

`CC(=O)O[C@@H](C)/C=C\C(=O)N[C@@H]1C[C@H](C)[C@H](C/C=C(C)/C=C/[C@@H]2C[C@]3(CO3)C[C@@H](CC(=O)NO)O2)O[C@@H]1C` [#B22, (2S,3Z)-5-({(2R,3R,5S,6S)-6-[(2E,4E)-5-{(3S,5S,7S)-7-[2-(hydroxyamino)-2-oxoethyl]-1,6-dioxaspiro[2.5]oct-5-yl}-3-methylpenta-2,4-dien-1-yl]-2,5-dimethyltetrahydro-2H-pyran-3-yl}amino)-5-oxopent-3-en-2-yl acetate]: the IC50 worked out at 4.23 nM in experiment [1] (96 h); 7.46 nM in experiment [2] (96 h); 1.76 nM in experiment [3] (Homo sapiens, BT-474).

`CC(=O)O[C@@H](C)/C=C\C(=O)N[C@@H]1C[C@H](C)[C@H](C/C=C(C)/C=C/[C@@H]2C[C@]3(CO3)C[C@@H](CC(=O)NCc3ccccc3)O2)O[C@@H]1C` [#B101, (2S,3Z)-5-({(2R,3R,5S,6S)-6-[(2E,4E)-5-{(3S,5S,7S)-7-[2-(benzylamino)-2-oxoethyl]-1,6-dioxaspiro[2.5]oct-5-yl}-3-methylpenta-2,4-dien-1-yl]-2,5-dimethyltetrahydro-2H-pyran-3-yl}amino)-5-oxopent-3-en-2-yl acetate]: the IC50 in experiment [1] (96 h) was determined as 10.4 nM; in experiment [2] (96 h), 34.8 nM; in experiment [3] (Homo sapiens, BT-474), 25.6 nM.

With `CNS(=O)(=O)c1ccc(CNC(=O)C[C@@H]2C[C@@]3(CO3)[C@H](O)[C@@H](/C=C/C(C)=C/C[C@@H]3O[C@H](C)[C@H](NC(=O)/C=C\[C@H](C)OC(C)=O)C[C@@H]3C)O2)cc1` [#B94, (2S,3Z)-5-{[(2R,3R,5S,6S)-6-{(2E,4E)-5-[(3R,4R,5R,7S)-4-hydroxy-7-(2-{[4-(methylsulfamoyl)benzyl]amino}-2-oxoethyl)-1,6-dioxaspiro[2.5]oct-5-yl]-3-methylpenta-2,4-dien-1-yl}-2,5-dimethyltetrahydro-2H-pyran-3-yl]amino}-5-oxopent-3-en-2-yl acetate], the IC50 was found to be 4.9 nM in experiment [1] (96 h); 37.4 nM in experiment [2] (96 h); 18.6 nM in experiment [3] (Homo sapiens, BT-474).

Regarding `CC(=O)O[C@@H](C)/C=C\C(=O)N[C@@H]1C[C@H](C)[C@H](C/C=C(C)/C=C/[C@@H]2C[C@]3(CO3)C[C@@H](CC(=O)NC(C)(C)C(=O)O)O2)O[C@@H]1C` [#B79, N-{[(3S,5S,7S)-7-{(1E,3E)-5-[(2S,3S,5R,6R)-5-{[(2Z,4S)-4-(acetyloxy)pent-2-enoyl]amino}-3,6-dimethyltetrahydro-2H-pyran-2-yl]-3-methylpenta-1,3-dien-1-yl}-1,6-dioxaspiro[2.5]oct-5-yl]acetyl}-2-methylalanine], the IC50 in experiment [1] (96 h) worked out at 0.423 nM; in experiment [2] (96 h), 1.31 nM; in experiment [3] (Homo sapiens, BT-474), 0.723 nM.

On to `CC(=O)O[C@@H](C)/C=C\C(=O)N[C@@H]1C[C@H](C)[C@H](C/C=C(C)/C=C/[C@@H]2C[C@]3(CO3)C[C@@H](CC(=O)NCc3ccc(S(N)(=O)=O)cc3)O2)O[C@@H]1C` [#B97, (2S,3Z)-5-{[(2R,3R,5S,6S)-2,5-dimethyl-6-{(2E,4E)-3-methyl-5-[(3S,5S,7S)-7-{2-oxo-2-[(4-sulfamoylbenzyl)amino]ethyl}-1,6-dioxaspiro[2.5]oct-5-yl]penta-2,4-dien-1-yl}tetrahydro-2H-pyran-3-yl]amino}-5-oxopent-3-en-2-yl acetate], for which the IC50 amounted to 5.09 nM in experiment [1] (96 h); 41.6 nM in experiment [2] (96 h); 8.83 nM in experiment [3] (Homo sapiens, BT-474).
